{
  "source": "patent US12329930B2",
  "about": "“Subarachnoid fluid management method and system” (EnClear Therapies, Inc., priority 2020, dated 2025)",
  "assay": "Administration of methotrexate to a sheep via the CSF circuit; drug concentration measured with LC/MS in CSF, spinal cord and brain regions",
  "type": "in vivo",
  "protocol": "The inventors administered methotrexate to sheep using illustrative embodiments. An outline of the study is depicted by FIGS. 16A-16C. A sheep used for this experiment received the CSF circuit 10 of illustrative embodiments. Circulation was started at the same time that methotrexate was infused. Methotrexate was infused at a gradual rate of 2 mLs over 2 minutes and then recirculation from lumbar to ventricle was started at a rate of 0.2 mLs/min. Circulation continued after drug infusion was stopped for […]. At zero to three hours, the circulation rate was at 0.1 mL/min and from four to six hours, circulation was at 0.3 mL/min. The dose of methotrexate infused was 12 mg. Drug concentration was measured with LC/MS (liquid chromatography with the mass analysis capabilities of mass spectrometry) in the CSF, spinal cord, and multiple brain regions.\nCSF levels of methotrexate were analyzed over time.\nThe x-axis of this graph is […].",
  "data": [
    {"molecule": "CN(Cc1cnc2nc(N)nc(N)c2n1)c1ccc(C(=O)N[C@@H](CCC(=O)O)C(=O)O)cc1", "note": "[methotrexate]", "values": [
      {"measurement": "CSF levels of methotrexate, lumbar region", "setting": "12 mg infused 2 mLs over 2 minutes, lumbar region where drug was infused, lumbar to ventricle circulation, LC/MS", "value": "very high"},
      {"measurement": "CSF levels of methotrexate over time, lumbar region", "setting": "12 mg, lumbar CSF samples, time course, LC/MS", "value": "a decline over time was measured except for an increase at 5 hours and then a subsequent decline"},
      {"measurement": "methotrexate levels in brain and spinal cord tissue", "setting": "12 mg, samples from twelve brain regions homogenized, all areas of the brain and spinal cord", "value": "good levels"},
      {"measurement": "CSF levels of methotrexate, ventricular samples, initially", "setting": "12 mg, ventricular CSF samples, initial time points, LC/MS", "value": "very low"},
      {"measurement": "CSF levels of methotrexate over time, ventricular samples", "setting": "12 mg, ventricular CSF samples, later time points, LC/MS", "value": "increased at 4 and 5 hours, before declining to a similar level as the lumbar samples"}
    ]}
  ]
}
